Target: human factor XIa (Homo sapiens (Human), UniProt P03951)
Assay: Measurement of FXIa inhibition (fluorogenic peptide substrate)
Format: biochemical
Conditions: factor XIa from Kordia 0.45 nM; substrate Boc-Glu(OBzl)-Ala-Arg-AMC; 30 min at 22° C.
Protocol: a.1) Measurement of FXIa Inhibition
The factor XIa inhibition of the inventive substances is determined using a biochemical test system which utilizes the reaction of a peptidic factor XIa substrate to determine the enzymatic activity of human factor XIa. Here, factor XIa cleaves from the peptic factor XIa substrate the C-terminal aminomethylcoumarin (AMC), the fluorescence of which is measured. The determinations are carried out in microtitre plates.
In each case 1 μl of the diluted substance solutions is placed into the wells of white microtitre plates from Greiner (384 wells). […] After 15 min of incubation, the enzyme reaction is started by addition of 20 μl of the factor XIa substrate Boc-Glu(OBzl)-Ala-Arg-AMC dissolved in assay buffer (10 μM in assay buffer) from Bachem, the mixture is incubated at room temperature (22° C.) for 30 min and fluorescence is then measured (excitation: 360 nm, emission: 460 nm). The measured emissions of the test batches with test substance are compared to those of control batches without test substance (only dimethyl sulphoxide instead of test substance in dimethyl sulphoxide), and IC50 values are calculated from the concentration/activity relationships.

human factor XIa, sequence (P03951 388-625): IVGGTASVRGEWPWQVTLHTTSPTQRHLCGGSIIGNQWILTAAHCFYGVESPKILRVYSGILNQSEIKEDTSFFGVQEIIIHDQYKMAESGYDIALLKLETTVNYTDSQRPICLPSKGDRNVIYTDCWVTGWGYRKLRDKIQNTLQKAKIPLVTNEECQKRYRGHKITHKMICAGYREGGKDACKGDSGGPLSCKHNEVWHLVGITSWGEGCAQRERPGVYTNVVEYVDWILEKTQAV
human factor XIa, sequence (P03951 19-387 partner): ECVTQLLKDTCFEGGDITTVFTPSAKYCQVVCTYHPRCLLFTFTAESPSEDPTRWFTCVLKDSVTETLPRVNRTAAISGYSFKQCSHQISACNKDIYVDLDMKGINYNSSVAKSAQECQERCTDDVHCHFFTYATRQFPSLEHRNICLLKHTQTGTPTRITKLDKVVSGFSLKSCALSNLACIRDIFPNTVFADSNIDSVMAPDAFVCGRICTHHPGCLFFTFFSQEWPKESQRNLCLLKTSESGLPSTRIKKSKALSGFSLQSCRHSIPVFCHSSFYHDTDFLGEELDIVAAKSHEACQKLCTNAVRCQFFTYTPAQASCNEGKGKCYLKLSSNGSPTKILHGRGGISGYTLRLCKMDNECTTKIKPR

Row | IC50 [nM] | SMILES
1 | 340 | CN1Cc2c(c(-c3cc(Cl)ccc3Cl)cc(=O)n2CC(=O)Nc2ccc(-c3nnn[nH]3)cc2)C1=O [Example 2, 2-[4-(2,5-Dichlorophenyl)-6-methyl-2,5-dioxo-2,5,6,7-tetrahydro-1H-pyrrolo[3,4-b]pyridin-1-yl]-N-[4-(1H-tetrazol-5-yl)phenyl]acetamide]
2 | 230 | O=C(Cn1c2c(c(-c3cc(Cl)ccc3Cl)cc1=O)C(=O)CC2)Nc1ccc(-c2nnn[nH]2)cc1 [Example 3, 2-[4-(2,5-Dichlorophenyl)-2,5-dioxo-2,5,6,7-tetrahydro-1H-cyclopenta[b]pyridin-1-yl]-N-[4-(1H-tetrazol-5-yl)phenyl]acetamide]
3 | 420 | O=C(Cn1c2c(c(-c3cc(Cl)ccc3Cl)cc1=O)C(=O)CC2)Nc1ccc(C(=O)O)cc1 [Example 4, 4-({[4-(2,5-Dichlorophenyl)-2,5-dioxo-2,5,6,7-tetrahydro-1H-cyclopenta[b]pyridin-1-yl]acetyl}amino)benzoic acid]
4 | 550 | O=C(Cn1c2c(c(-c3cc(Cl)ccc3Cl)cc1=O)C(=O)CC2)Nc1ccc(-c2nc(C(F)(F)F)n[nH]2)cc1 [Example 6, 2-[4-(2,5-Dichlorophenyl)-2,5-dioxo-2,5,6,7-tetrahydro-1H-cyclopenta[b]pyridin-1-yl]-N-{4-[3-(trifluoromethyl)-1H-1,2,4-triazol-5-yl]phenyl}acetamide]
5 | 130 | O=C(Cn1c2c(c(-c3cc(Cl)ccc3Cl)cc1=O)C(=O)CC2)Nc1ccc(-c2cc(=O)[nH][nH]2)cc1 [Example 7, 2-[4-(2,5-Dichlorophenyl)-2,5-dioxo-2,5,6,7-tetrahydro-1H-cyclopenta[b]pyridin-1-yl]-N-[4-(5-oxo-2,5-dihydro-1H-pyrazol-3-yl)phenyl]acetamide]
6 | 470 | O=C(Cn1c2c(c(-c3cc(Cl)ccc3Cl)cc1=O)C(=O)CC2)Nc1ccc(-c2cnc[nH]2)cc1 [Example 8, 2-[4-(2,5-Dichlorophenyl)-2,5-dioxo-2,5,6,7-tetrahydro-1H-cyclopenta[b]pyridin-1-yl]-N-[4-(1H-imidazol-5-yl)phenyl]acetamide]
7 | 170 | O=C(Cn1c2c(c(-c3cc(Cl)ccc3Br)cc1=O)C(=O)CC2)Nc1ccc(-c2nnn[nH]2)cc1 [Example 9, 2-[4-(2-Bromo-5-chlorophenyl)-2,5-dioxo-2,5,6,7-tetrahydro-1H-cyclopenta[b]pyridin-1-yl]-N-[4-(1H-tetrazol-5-yl)phenyl]acetamide]
8 | 750 | O=C(Cn1c2c(c(-c3cc(Cl)ccc3C(F)(F)F)cc1=O)C(=O)CC2)Nc1ccc(-c2cc(=O)[nH][nH]2)cc1 [Example 11, 2-{4-[5-Chloro-2-(trifluoromethyl)phenyl]-2,5-dioxo-2,5,6,7-tetrahydro-1H-cyclopenta[b]pyridin-1-yl}-N -[4-(5-oxo-2,5-dihydro-1H-pyrazol-3-yl)phenyl]acetamide]
9 | 140 | N#Cc1ccc(Cl)cc1-c1cc(=O)n(CC(=O)Nc2ccc(-c3cc(=O)[nH][nH]3)cc2)c2c1C(=O)CC2 [Example 14, 2-[4-(5-Chloro-2-cyanophenyl)-2,5-dioxo-2,5,6,7-tetrahydro-1H-cyclopenta[b]pyridin-1-yl]-N-[4-(5-oxo-2,5-dihydro-1H-pyrazol-3-yl)phenyl]acetamide]

Row | SMILES | IC50 [nM]
10 | O=C(Cn1c2c(c(-c3cc(Cl)ccc3Br)cc1=O)C(=O)CC2)Nc1ccc(-c2noc(=O)[nH]2)cc1 [Example 10, 2-[4-(2-Bromo-5-chlorophenyl)-2,5-dioxo-2,5,6,7-tetrahydro-1H-cyclopenta[b]pyridin-1-yl]-N-[4-(5-oxo-4,5-dihydro-1,2,4-oxadiazol-3-yl)phenyl]acetamide] | 190
11 | N#Cc1ccc(Cl)cc1-c1cc(=O)n(CC(=O)Nc2ccc(-c3noc(=O)[nH]3)cc2)c2c1C(=O)CC2 [Example 13, 2-[4-(5-Chloro-2-cyanophenyl)-2,5-dioxo-2,5,6,7-tetrahydro-1H-cyclopenta[b]pyridin-1-yl]-N-[4-(5-oxo-4,5-dihydro-1,2,4-oxadiazol-3-yl)phenyl]acetamide] | 34
12 | N#Cc1ccc(Cl)cc1-c1cc(=O)n(CC(=O)Nc2ccc(-c3noc(=O)[nH]3)cc2)c2c1C(=O)CCC2 [Example 16, 2-[4-(5-Chloro-2-cyanophenyl)-2,5-dioxo-5,6,7,8-tetrahydroquinolin-1(2H)-yl]-N-[4-(5-oxo-4,5-dihydro-1,2,4-oxadiazol-3-yl)phenyl]acetamide] | 77

From patent US9475809B2, “Substituted oxopyridine derivatives and use thereof as factor xia/plasma” (BAYER PHARMA AKTIENGESELLSCHAFT, priority 2013, dated 2016)
